US12371426B2, “Pyridazine derivatives as SMARCA2/4 degraders” (Aurigene Discovery Technologies Limited, priority 2018, dated 2025)
pIC50: −log10 of the molar value.

What follows are molecules tested on NCI-H929 cells (assay: Anti proliferative activity in NCI-H929 cell line by Cell Titer Glo assay). Conditions: Homo sapiens, 72 h, 3 days compound incubation, CellTiter Glo, read-out: Anti-proliferative activity IC50 group (NCI-H929 cells).
Type: cell-based
Procedure: Determination of Anti Proliferative Activity of Compounds in NCI-H929 and NCI-H838 Cell Lines by Cell Titer Glo® (promega) assay:
NCI-H929 (ATCC CRL-9068) or NCI-H838 (ATCC CRL-5844) cells were seeded in 96 well plate flat black clear bottom plates (Corning, Cat. No 3904) using complete RPMI-1640 media. Next day, compounds listed in the present invention were added to cells from 10 mM stocks made in DMSO (Sigma Cat no. D2650). Each concentration of compound was tested in triplicate with DMSO concentration at a final percentage not exceeding 0.3 in the cells. After the compound incubation (3 days for H929 and 8 days for H838) assay was terminated using 50 μl of CellTiter Glo® reagent (Promega, Cat. no G7572). CellTiter Glo® Luminescent reagent determines the number of viable cells based on quantitation of ATP present which is an indicator of cell number and metabolic activity. Luminescence readings were taken in Victor-3 instrument. Percent inhibition of proliferation was calculated using formula, % inhibition=100−(luminescence value of test/luminescence value of DMSO control)*100. DMSO control (0%)=Cells in complete media with DMSO; blank=Media alone containing DMSO. IC50 was calculated using graph pad prism software.
Herein group “A” refers to IC50 value lower than 1 μM, “B” refers to IC50 value between 1-10 μM (both inclusive) and “C” refers to IC50 value higher than 10 μM or less than 50% activity at 10 μM.

Row | Compound | pIC50
1 | COC(=O)c1cc(N2CCN(CC(=O)N[C@H](C(=O)N3C[C@H](O)C[C@H]3C(=O)N[C@@H](C)c3ccc(-c4scnc4C)cc3)C(C)(C)C)CC2)c(N)nn1 [Compound 72, methyl 6-amino-5-(4-(2-(((S)-1-((2S,4R)-4-hydroxy-2-(((S)-1-(4-(4-methylthiazol-5-yl)phenyl)ethyl)carbamoyl)pyrrolidin-1-yl)-3,3-dimethyl-1-oxobutan-2-yl)amino)-2-oxoethyl)piperazin-1-yl)pyridazine-3-carboxylate] | < 5.00
2 | Cc1ncsc1-c1ccc([C@H](C)NC(=O)[C@@H]2C[C@@H](O)CN2C(=O)[C@@H](NC(=O)CN2CCN(c3cc(C(=O)O)nnc3N)CC2)C(C)(C)C)cc1 [Compound 73, 6-amino-5-(4-(2-(((S)-1-((2S,4R)-4-hydroxy-2-(((S)-1-(4-(4-methylthiazol-5-yl)phenyl)ethyl)carbamoyl)pyrrolidin-1-yl)-3,3-dimethyl-1-oxobutan-2-yl)amino)-2-oxoethyl)piperazin-1-yl)pyridazine-3-carboxylic acid] | < 5.00
3 | Cc1ncsc1-c1ccc(CNC(=O)[C@@H]2C[C@H](O)CN2C(=O)[C@@H](NC(=O)CN2CCN(c3cc(-c4ccccc4O)nnc3N)CC2)C(C)(C)C)cc1 [Compound 105] | 5.00 to 6.00
4 | Cc1ncsc1-c1ccc([C@H](C)NC(=O)[C@@H]2C[C@@H](F)CN2C(=O)[C@@H](NC(=O)CN2CCN(c3cc(-c4ccccc4O)nnc3N)CC2)C(C)(C)C)cc1 [Compound 107] | 5.00 to 6.00

Further lines, results first:

Row | pIC50 | Compound
5 | < 5.00 | Cc1ncsc1-c1ccc([C@H](C)NC(=O)[C@@H]2C[C@@H](O)CN2C(=O)[C@@H](NC(=O)CN2CCN(c3cc(-c4ccccc4Cl)nnc3N)CC2)C(C)(C)C)cc1 [Compound 89]
6 | 5.00 to 6.00 | Cc1ncsc1-c1ccc([C@H](C)NC(=O)[C@@H]2C[C@@H](O)CN2C(=O)[C@@H](NC(=O)CC2CCN(c3cc(-c4ccccc4F)nnc3N)CC2)C(C)(C)C)cc1 [Compound 97]
7 | 5.00 to 6.00 | Cc1ncsc1-c1ccc([C@H](C)NC(=O)[C@@H]2C[C@@H](O)CN2C(=O)[C@@H](NC(=O)CC2CN(c3cc(-c4ccccc4O)nnc3N)C2)C(C)(C)C)cc1 [Compound 104]
8 | 5.00 to 6.00 | Cc1ncsc1-c1ccc([C@H](C)NC(=O)[C@@H]2C[C@H](O)CN2C(=O)[C@@H](NC(=O)CN2CCN(c3cc(-c4ccccc4O)nnc3N)CC2)C(C)(C)C)cc1 [Compound 106]
9 | > 6.00 | Cc1ncsc1-c1ccc([C@H](C)NC(=O)[C@@H]2C[C@@H](O)CN2C(=O)[C@@H](NC(=O)CCCCC(=O)N2CCN(c3cc(-c4ccccc4O)nnc3N)CC2)C(C)(C)C)cc1 [Compound 110]
10 | > 6.00 | Cc1ncsc1-c1ccc([C@H](C)NC(=O)[C@@H]2C[C@@H](O)CN2C(=O)[C@@H](NC(=O)CCCCCCCC(=O)N2CCN(c3cc(-c4ccccc4O)nnc3N)CC2)C(C)(C)C)cc1 [Compound 111]
11 | > 6.00 | Cc1ncsc1-c1ccc([C@H](C)NC(=O)[C@@H]2C[C@@H](O)CN2C(=O)[C@@H](NC(=O)CCCCCC(=O)N2CCN(c3cc(-c4ccccc4O)nnc3N)CC2)C(C)(C)C)cc1 [Compound 112]
12 | 5.00 to 6.00 | Cc1ncsc1-c1ccc([C@H](C)NC(=O)[C@@H]2C[C@@H](O)CN2C(=O)[C@@H](NC(=O)CCCCCNC(=O)C2CCN(c3cc(-c4ccccc4O)nnc3N)CC2)C(C)(C)C)cc1 [Compound 113]
13 | < 5.00 | Cc1ncsc1-c1ccc([C@H](C)NC(=O)[C@@H]2C[C@@H](O)CN2C(=O)[C@@H](NC(=O)CCCC(=O)N2CCN(c3cc(-c4ccccc4O)nnc3N)CC2)C(C)(C)C)cc1 [Compound 114]
14 | 5.00 to 6.00 | Cc1ncsc1-c1ccc([C@H](C)NC(=O)[C@@H]2C[C@H](O)CN2C(=O)[C@@H](NC(=O)CCCCCCC(=O)N2CCN(c3cc(-c4ccccc4O)nnc3N)CC2)C(C)(C)C)cc1 [Compound 115]

Each molecule was assayed against SMARCA2 (Homo sapiens, UniProt P51531) (assay: SMARCA2 degradation in NCI-H838 cells by Western blot). Conditions: 16 hours.
Chain of SMARCA2 (P51531 whole entry): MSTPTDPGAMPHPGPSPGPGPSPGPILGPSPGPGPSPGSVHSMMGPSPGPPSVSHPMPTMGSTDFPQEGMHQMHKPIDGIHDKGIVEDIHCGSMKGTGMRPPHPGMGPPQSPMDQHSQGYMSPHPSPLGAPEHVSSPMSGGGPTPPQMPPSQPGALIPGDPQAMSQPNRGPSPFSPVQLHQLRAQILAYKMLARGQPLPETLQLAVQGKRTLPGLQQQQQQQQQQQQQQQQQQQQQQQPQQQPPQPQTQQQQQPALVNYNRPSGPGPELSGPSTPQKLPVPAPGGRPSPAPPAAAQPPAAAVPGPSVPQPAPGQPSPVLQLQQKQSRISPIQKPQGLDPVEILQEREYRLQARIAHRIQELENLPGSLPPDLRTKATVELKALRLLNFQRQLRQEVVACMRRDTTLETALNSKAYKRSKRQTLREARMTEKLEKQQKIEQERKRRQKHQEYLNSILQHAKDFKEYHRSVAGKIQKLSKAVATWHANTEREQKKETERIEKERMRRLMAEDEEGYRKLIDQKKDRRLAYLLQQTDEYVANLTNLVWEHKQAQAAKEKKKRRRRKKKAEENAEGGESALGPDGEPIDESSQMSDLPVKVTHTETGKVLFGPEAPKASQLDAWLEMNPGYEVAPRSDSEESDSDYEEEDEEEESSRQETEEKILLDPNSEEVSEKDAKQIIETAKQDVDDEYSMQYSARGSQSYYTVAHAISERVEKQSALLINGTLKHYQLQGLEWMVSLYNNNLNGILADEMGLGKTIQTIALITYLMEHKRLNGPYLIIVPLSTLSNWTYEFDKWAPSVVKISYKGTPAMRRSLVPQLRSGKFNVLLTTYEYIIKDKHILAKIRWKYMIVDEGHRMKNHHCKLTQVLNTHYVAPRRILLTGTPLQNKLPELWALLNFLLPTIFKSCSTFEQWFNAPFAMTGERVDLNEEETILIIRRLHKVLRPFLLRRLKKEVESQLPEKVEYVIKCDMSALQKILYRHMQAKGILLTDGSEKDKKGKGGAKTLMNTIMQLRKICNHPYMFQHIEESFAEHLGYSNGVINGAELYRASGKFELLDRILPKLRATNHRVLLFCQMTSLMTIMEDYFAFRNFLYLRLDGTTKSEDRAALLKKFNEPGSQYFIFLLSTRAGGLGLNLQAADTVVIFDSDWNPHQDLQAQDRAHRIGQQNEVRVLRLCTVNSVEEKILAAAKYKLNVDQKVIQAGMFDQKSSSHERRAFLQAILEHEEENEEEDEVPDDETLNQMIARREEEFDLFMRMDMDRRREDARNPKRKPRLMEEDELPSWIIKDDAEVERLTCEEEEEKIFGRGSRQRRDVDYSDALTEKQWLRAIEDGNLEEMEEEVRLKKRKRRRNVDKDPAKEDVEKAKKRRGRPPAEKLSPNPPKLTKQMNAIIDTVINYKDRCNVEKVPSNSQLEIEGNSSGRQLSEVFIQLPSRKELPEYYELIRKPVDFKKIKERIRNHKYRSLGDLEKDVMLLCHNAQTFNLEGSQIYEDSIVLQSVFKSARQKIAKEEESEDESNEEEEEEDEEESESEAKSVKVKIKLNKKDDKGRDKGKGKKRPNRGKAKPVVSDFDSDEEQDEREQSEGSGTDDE
Type: cell-based
Parameters: endogenous in cells; host or cells: NCI-H838 (ATCC CRL-5844)
Procedure: Determination of SMARCA2 Degradation in NCI-1H838 Cells by Western Blot:
NCI-1H838 (ATCC CRL-5844) was plated in 6 well plates using complete RPMI-1640 media. Next day, compounds of present invention were added to cells from 10 mM stocks made in DMSO (Sigma Cat no. D2650). Each concentration of compound was tested with DMSO concentration not exceeding a final percentage of 0.3 in the cells. Cells were incubated with the compound for 16 hours followed by harvesting with 1× RIPA lysis buffer (Thermo Fischer, catalogue number #89900) containing protease inhibitor cocktail (Sigma catalogue number #P-8340). Equal amount of protein was loaded on SIDS PAGE gel for electrophoresis. Western blot was carried out for detection of SMARCA2 with antibody (Cell signaling technologies, catalogue number #11966). Beta Actin (Santa Cruz, catalogue number #69879) was used as loading control. Percentage of SMARCA2 degradation was calculated using formula % degradation=100−(normalized band intensity in treated sample/normalized band intensity in DMSO sample)*100”.
Selected compounds of the present invention were screened in the above mentioned assay procedures for determination of % SMARCA2 degradation at 100 nM and the results are summarized in below table 31.

Row | Compound | SMARCA2 @ 100 nM (% SMARCA2 degradation) [%]
15 | Cc1ncsc1-c1ccc(C(NC(=O)[C@@H]2C[C@@H](O)CN2C(=O)[C@@H](NC(=O)CC2CCN(c3cc(-c4cccc(F)c4O)nnc3N)CC2)C(C)(C)C)C(F)(F)F)cc1 (single isomer, unassigned) [Compound 77] | 9
16 | Cc1ncsc1-c1ccc(C(NC(=O)[C@@H]2C[C@@H](O)CN2C(=O)[C@@H](NC(=O)CC2CCN(c3cc(-c4cccc(F)c4O)nnc3N)CC2)C(C)(C)C)C(F)(F)F)cc1 (single isomer, unassigned) [Compound 78] | 26
17 | Cc1ncsc1-c1ccc([C@H](C)NC(=O)[C@@H]2C[C@@H](O)CN2C(=O)[C@@H](NC(=O)Cn2cc(-c3cc(-c4cccc(F)c4O)nnc3N)cn2)C(C)(C)C)cc1 [Compound 62, (2S,4R)-1-((S)-2-(2-(4-(3-amino-6-(3-fluoro-2-hydroxyphenyl)pyridazin-4-yl)-1H-pyrazol-1-yl)acetamido)-3,3-dimethylbutanoyl)-4-hydroxy-N—((S)-1-(4-(4-methylthiazol-5-yl)phenyl)ethyl)pyrrolidine-2-carboxamide] | 27
18 | Nc1nnc(-c2ccccc2O)cc1N1CCN(CCC(=O)Nc2cccc3c2C(=O)N(C2CCC(=O)NC2=O)C3=O)CC1 (stereo not drawn) [Compound 69] | 12
19 | Nc1nnc(-c2ccccc2O)cc1N1CCN(CCCC(=O)Nc2cccc3c2C(=O)N(C2CCC(=O)NC2=O)C3=O)CC1 (stereo not drawn) [Compound 70] | -11
20 | Cc1ncsc1-c1ccc([C@H](C)NC(=O)[C@@H]2C[C@@H](O)CN2C(=O)[C@@H](NC(=O)CN2CCN(c3cc(C(N)=O)nnc3N)CC2)C(C)(C)C)cc1 [Compound 74, 6-amino-5-(4-(2-(((S)-1-((2S,4R)-4-hydroxy-2-(((S)-1-(4-(4-methylthiazol-5-yl)phenyl)ethyl)carbamoyl)pyrrolidin-1-yl)-3,3-dimethyl-1-oxobutan-2-yl)amino)-2-oxoethyl)piperazin-1-yl)pyridazine-3-carboxamide] | 21
21 | CNC(=O)c1cc(N2CCN(CC(=O)N[C@H](C(=O)N3C[C@H](O)C[C@H]3C(=O)N[C@@H](C)c3ccc(-c4scnc4C)cc3)C(C)(C)C)CC2)c(N)nn1 [Compound 75, 6-amino-5-(4-(2-(((S)-1-((2S,4R)-4-hydroxy-2-(((S)-1-(4-(4-methylthiazol-5-yl)phenyl)ethyl)carbamoyl)pyrrolidin-1-yl)-3,3-dimethyl-1-oxobutan-2-yl)amino)-2-oxoethyl)piperazin-1-yl)-N-methylpyridazine-3-carboxamide] | 12
22 | Cc1ncsc1-c1ccc([C@H](C)NC(=O)[C@@H]2C[C@@H](O)CN2C(=O)[C@@H](NC(=O)CN2CCN(c3cc(-c4ccccc4N)nnc3N)CC2)C(C)(C)C)cc1 [Compound 93] | 74

Now from value to molecule:

Row | SMARCA2 @ 100 nM (% SMARCA2 degradation) [%] | Compound
23 | 94 | Cc1ncsc1-c1ccc([C@H](C)NC(=O)[C@@H]2C[C@@H](O)CN2C(=O)[C@@H](NC(=O)CN2CCN(c3cc(-c4ccccc4O)nnc3N)CC2)C(C)(C)C)cc1.Cl [Compound 65, (2S,4R)-1-((S)-2-(2-(4-(3-amino-6-(2-hydroxyphenyl)pyridazin-4-yl)piperazin-1-yl)acetamido)-3,3-dimethylbutanoyl)-4-hydroxy-N—((S)-1-(4-(4-methylthiazol-5-yl)phenyl)ethyl)pyrrolidine-2-carboxamide hydrochloride]
24 | 13 | Cc1ncsc1-c1ccc([C@H](C)NC(=O)[C@@H]2C[C@@H](O)CN2C(=O)[C@@H](NC(=O)OC2CCN(c3cc(-c4ccccc4O)nnc3N)CC2)C(C)(C)C)cc1 [Compound 80]
